Results as given in PubChem BioAssay (NCI).
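96-well plates; 48 h exposure; 5 concentrations. Endpoints by linear interpolation between flanking doses. Not reached: highest tested concentration assigned. TGI: concentration producing complete growth inhibition.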

Experiments:
Assay in all cases: inhibition of tumour cell growth, NCI panel, 48 h
ACHN renal = system: ACHN renal
SN12C renal = system: SN12C renal
M14 melanoma = system: M14 melanoma
TK-10 renal = system: TK-10 renal
IGROV1 ovarian = system: IGROV1 ovarian
UACC-257 melanoma = system: UACC-257 melanoma
NCI-H522 lung = system: NCI-H522 lung
M19-MEL melanoma = system: M19-MEL melanoma
DMS 273 small cell lung = system: DMS 273 small cell lung
MDA-MB-435 = system: MDA-MB-435
T-47D breast = system: T-47D breast

SMILES | TGI (ACHN renal) [µM] | TGI (SN12C renal) [µM] | TGI (M14 melanoma) [µM] | TGI (TK-10 renal) [µM] | TGI (IGROV1 ovarian) [µM] | TGI (UACC-257 melanoma) [µM] | TGI (NCI-H522 lung) [µM] | TGI (M19-MEL melanoma) [µM] | TGI (DMS 273 small cell lung) [µM] | TGI (MDA-MB-435) [µM] | TGI (T-47D breast) [µM]
Cc1ccc2c(c1)c(=O)c1c(NCCN(C)C)ccc3nnn2c31 | 17.7 | > 42 | 16.4 | 28.3 | 23 | 14.2 | 17.6 | 20.8 |  |  | 
O=c1[nH]c(=O)n(C2CC(O)C(CO)O2)cc1C#Cc1ccc(C(F)(F)F)cc1 (stereo unspecified) | > 100 | > 100 | > 100 | > 100 | > 100 | > 100 | > 100 |  | > 100 |  | 
COc1cc(N=Nc2cccc(S(=O)(=O)O)c2)c(C)cc1N=Nc1ccc(/C=C/c2ccc(N=[N+]([O-])c3ccc(/C=C/c4ccc(N=Nc5cc(C)c(N=Nc6cccc(S(=O)(=O)O)c6)cc5OC)cc4)c(S(=O)(=O)O)c3)cc2S(=O)(=O)O)cc1 |  | > 100 |  |  | > 100 | > 100 | > 100 | > 100 | > 100 |  | 
NC1=NS(=O)(=O)N=C(N)C1=Cc1ccc([N+](=O)[O-])o1 | 30.6 | 30.1 | 26.9 | 32.6 | 32.1 | 28.9 | 31.5 | 30 | 30.3 |  | 
Cc1[nH]c(=O)nc(N/N=C/c2ccc(Cl)c(Cl)c2)c1C(=O)Nc1ccc(Cl)c(Cl)c1 | > 53.1 | > 46.5 | 15.7 | 28 | > 39.2 | > 41 | 44.7 |  |  | > 39.5 | 72
O=C1CCSSCCC(=O)Nc2ccccc2N1 | > 100 | > 100 | > 100 | > 100 | > 100 | > 100 | > 100 |  |  | > 100 | > 100
Cc1ccc(Nc2nc(=O)[nH]c(=O)[nH]2)cc1N | > 100 | > 100 | > 100 | > 100 | > 100 | > 100 | > 100 |  |  | > 100 | > 100
COc1cc(S(=O)(=O)Nc2nc(-c3ccc(N4C(=O)/C(=C/c5ccccc5)N=C4c4ccccc4)cc3)cs2)ccc1Cl | > 100 | > 100 | > 100 | > 100 | > 100 | > 100 | > 100 |  |  | > 100 | > 100
CCOC(=O)c1c2c(n(C)c1-c1ccccc1)C(=O)C(C)=CC2=O | 20.7 | 24.1 | 13.5 | 22.1 | 17.6 | 7.03 | 5.83 |  |  | 3.68 | > 26
C/C(=N\N(C)C)C(CN(C)C)C(c1ccccc1)c1c(O)c2ccccc2oc1=O (stereo unspecified) | > 100 | > 100 | > 100 | > 100 | > 100 | > 100 | > 100 |  | > 100 |  | 
COc1ccc(N2C(=O)C3c4[nH]c5ccc(C)cc5c4C4CCC(C(C)C)CC4C3C2=O)cc1 (stereo unspecified) | > 100 | > 100 | > 100 | > 100 | > 100 | > 100 | > 100 |  |  | > 100 | > 100
CC1(C)OC[C@@H](/C=C\CCO[Si](c2ccccc2)(c2ccccc2)C(C)(C)C)N1C(=O)c1ccccc1 | > 100 | 29.9 | 32.8 | > 100 | > 100 | 24.1 | 18.8 |  |  | > 100 | > 100
O=C(Cc1nc2ccc(C(=O)c3ccccc3)cc2[nH]c1=O)C(=O)Nc1ccccc1[N+](=O)[O-] | > 100 | > 100 | > 100 | > 100 | > 100 | > 100 | > 100 |  |  | > 100 | > 100
CC(=O)N[C@@H](Cc1ccc(O)cn1)C(=O)NCc1ccc2c(c1)OCO2 | > 100 | > 100 | > 100 | > 100 | > 100 | > 100 | > 100 |  |  | > 100 | > 100
O=C(Nc1cccc2nsnc12)c1cc2c(cc1Cl)Sc1nccn1S2(=O)=O | 35.9 | 31.1 | 42.5 | 16.3 | 46.6 | 3.49 | 32.3 |  |  | 36.5 | 7.04
CC(=O)O[C@]12CCCCCCC1C1(O)C(O)CCC[C@H]12 (stereo partly specified) | > 100 | > 100 | > 100 | > 100 |  | > 100 | > 100 | > 100 | > 100 |  | 
CC1=NN(C(=O)CC(=O)Nc2cccc(Cl)c2)C(=O)C1N=Nc1ccc(S(N)(=O)=O)cc1 (stereo unspecified) | > 100 | > 100 | > 100 | > 100 | > 100 | > 100 | > 100 | > 100 | > 100 |  | 
c1ccc2c3c(ccc2c1)CSCc1ccc2ccccc2c1-3 | > 100 | > 100 | > 100 | > 100 | > 100 | > 100 | > 100 |  |  | > 100 | > 100
Cc1ncc([N+](=O)[O-])n1CCN=[N+]=[N-] | > 100 | > 100 | > 100 | > 100 | > 100 | > 100 | > 100 |  |  | > 100 | > 100
COc1ccc(/C=N/Nc2[nH]c(=S)nc3[nH]ncc23)cc1 | > 100 | > 100 | > 100 | 65.9 | 68.2 | > 100 | 79.9 |  |  | > 100 | 44.2
CCCCCCCCCCCCOC1C(COCCN2CCCC2)OC2OC(C)(C)OC21 (stereo unspecified) | 11.2 | 3.24 | 3.25 | 3.03 | 3.1 | 3.14 | 2.53 |  |  | 3.14 | 4.11
O=C1c2ccccc2S(=O)(=O)c2ccccc21 | > 100 | > 100 | > 100 | > 100 | > 100 | > 100 | > 100 |  |  | > 100 | > 100
